For eight compounds, EC90 and IC50 results are on record in PMC3109985 (Organic letters, 2011).

Read-outs that look alike come from different tables or passages of the source.

Series [1] deals with HIV-1 NL4-3. Description: Anti-HIV assay: HIV-1 NL4-3 replication in MT4 cells, p24 ELISA. The class given is cell-based. (ELISA stands for enzyme-linked immunosorbent assay.)
A short description of series [2]: Cytotoxicity to MT4 cells, CellTiter-Glo Luminescent Cell Viability Assay. The class given is cell-based. The following applies: human. (In general: ATP-based viability assays read luminescence as a measure of living cells.)
The mark [3] stands for this setting: read-out: anti-HIV (NL4-3) EC90, concentration that inhibited HIV-1 replication by 90%, MT4 cells, 4-day post infection, p24 ELISA.
Where [4] appears, read: Human immunodeficiency virus 1, NL43, MT4, 96 h, read-out: anti-HIV (NL4-3) EC90.

As a reminder, the EC90 is the concentration needed for an effect of 90%. Consider `C=C(C)[C@]12C[C@@H](C)[C@@]34O[C@](/C=C/C=C/CCCCCCCCC)(O[C@@H]1[C@@H]3[C@@H]1O[C@]1(CO)[C@@H](O)[C@]1(O)C(=O)C(C)=C[C@H]14)O2` [Compound 8, huratoxin], for which, in series [1] (setting [3]), the EC90 is 5.8 nM.
By IC50 is commonly meant the concentration at which inhibition is half-maximal. A lower IC50 goes with inhibition by little substance. With `C=C(C)[C@@]12C[C@@H](COC(=O)c3ccccc3)[C@@]34OC5(O[C@@H]1[C@@H]3[C@@H]1O[C@]1(CO)[C@@H](O)[C@@]1(O)[C@H]4[C@H]([C@H](C)[C@@H]1OC(=O)c1ccccc1)[C@H](C)CCCCCC[C@H]5O)O2` [Compound 1, gnidimacrin], the EC90 was 0.41 nM in series [1] (setting [4]) and less than 1 nM in series [1] (Human immunodeficiency virus 1, NL43, MT4, read-out: anti-HIV EC90). The same compound returned an IC50 in series [2] of 2800 nM.
Turning to `C=C(C)[C@]12C[C@@H](COC(C)=O)[C@@]34O[C@]5(O[C@@H]1[C@@H]3[C@@H]1O[C@]1(CO)[C@@H](O)[C@@]1(O)[C@H]4[C@H]([C@H](C)[C@@H]1OC(=O)c1ccccc1)[C@H](C)CCCCCC[C@H]5O)O2` [Compound 4, Stelleralide A], in series [1] (setting [3]), the EC90 stood at 0.4 nM.
On the same count and under the same terms, to Stelleralide B [Compound 5] belongs 1.6 nM.
Consider `C=C(C)[C@]12C[C@@H](C)[C@@]34O[C@](CCCCCCCCC)(O[C@@H]1[C@@H]3[C@@H]1O[C@]1(CO)[C@@H](O)[C@]1(O)C(=O)C(C)=C[C@H]14)O2` [Compound 7, simplexin], for which the EC90 in series [1] (setting [4]) stood at 8 nM. This compound also returned an IC50 in series [2] of 22500 nM.
Consider `C=C(C)[C@]12C[C@@H](COC(=O)c3ccccc3)[C@@]34OC5(CCCCCCC[C@@H](C)[C@H]6[C@H](C)C(=O)[C@@](O)([C@H](O)[C@@]7(CO)O[C@H]7[C@H]3[C@H]1O5)[C@@H]64)O2` [Compound 3, wikstroelide F], for which the EC90 in series [1] (setting [3]) came out at 1.7 nM.
For the compound `C=C(C)[C@]12C[C@@H](COC(=O)c3ccccc3)[C@]34OC5(CCCCCCC[C@H](C)[C@@H]6[C@@H]3[C@]3(O[C@]6(C)OC3=O)[C@H](O)[C@@]3(CO)O[C@H]3[C@H]4[C@H]1O5)O2` [Compound 6, Stelleralide C], in series [1] (setting [3]), the EC90 turned out to be 91 nM.
Regarding `C=C(C)[C@]12C[C@@H](C)[C@@]34OC5(CCCCCCC[C@H](C)[C@H]6[C@H](C)[C@H](OC(=O)c7ccccc7)[C@@](O)([C@H](O)[C@@]7(CO)O[C@H]7[C@H]3[C@H]1O5)[C@@H]64)O2` [Compound 2, pimelea factor P2], in series [1] (setting [4]), the EC90 came to 1.4 nM. Half-maximal inhibition in series [2] (IC50) required 3200 nM.
